Experimental data as given in US9604974B2, “Compounds as modulator of JAK-STAT pathway, methods and applications thereof” (UNIVERSITY OF MYSORE, priority 2015, dated 2017).

System: caspase-3 and PARP
Assay: Western blot of procaspase-3 and PARP cleavage
Assay type: cell-based, human
Settings: HepG2, 10 μMol/L CIMO, time dependent
Procedure: FIG. 4 depicts activation of caspase-3 and induction of apoptosis by Compound 1 (CIMO) [A]. HepG2 cells (5×10^5/mL) are treated with 10 μMol/L CIMO for the indicated times, whole-cell extracts are prepared, separated on SDS-PAGE, and subjected to Western Blotting against caspase-3 and PARP antibody. The same blot is stripped and reprobed with Beta actin antibody to show equal protein loading. [B] Tyrosine phosphatase inhibitor-sodium pervanadate reverses the inhibitory effect of Compound 1 (CIMO) on phospho-STAT3. HepG2 cells (5×10^5/mL) are treated with the indicated concentrations of sodium pervanadate and 10 μMol/L CIMO for about 4 hours, after which whole-cell extracts are prepared, resolved on SDS-PAGE gel, electrotransferred onto nitrocellulose membrane, and probed for phospho-STAT3 and STAT3. [C] illustrates the inhibitory activity of Compound 1 (CIMO) on phospho-STAT3 mediated by protein tyrosine phosphatase. […]
To detect STAT3-regulated proteins and PARP, cells (2×10^6/ml) are treated with CIMO for the indicated times as shown in respective FIGS. 3E, 3D and 4A. […] Whole-cell extract protein (30 μg) is resolved on SDS-PAGE, electrotransferred onto a nitrocellulose membrane, blotted with antibodies against survivin, Bcl-2, Bcl-xL, cyclin D1, Bak, Bid, ICAM-1, procaspase-3, and PARP and then detected by chemiluminescence (ECL; GE Healthcare, Little Chalfont, Buckinghamshire, UK).

COc1ccc(C2CNC(c3cn(Cc4ccc(-c5ccccc5C#N)cc4)c4ccccc34)OC23CCCCC3)cc1 (centres unmarked) [Compound 1]
full length PARP / cleaved 85-kDa fragment: decline of full length PARP with increase in cleaved 85-kDa fragment | procaspase-3 activation: activation of procaspase-3
